According to patent US8741944B2, “Anti-infective agents against intracellular pathogens” (priority 2007, dated 2014):
“And” between values parts separate entries of the source, which are not always exact repeats. Identical values can stand only once. Like-named read-outs stand apart in the source and are kept apart here.

Legend:
SK-OV-3 (Ovarian Cancer) = test: NCI DTP tumor cell line screen (SRB), SK-OV-3
Protocol: (§1) For a typical screening experiment, cells are inoculated into 96 well microtiter plates in 100 μL at plating densities ranging from 5,000 to 40,000 cells/well depending on the doubling time of individual cell lines. After cell inoculation, the microtiter plates are incubated at 37° C., 5% CO2, 95% air and 100% relative humidity for 24 h prior to addition of experimental drugs.
(§2) After 24 h, two plates of each cell line are fixed in situ with TCA, to represent a measurement of the cell population for each cell line at the time of drug addition (Tz). Experimental drugs are solubilized in dimethyl sulfoxide at 400-fold the desired final maximum test concentration and stored frozen prior to use. At the time of drug addition, an aliquot of frozen concentrate is thawed and diluted to twice the desired final maximum test concentration with complete medium containing 50 μg/ml gentamicin. Additional four, 10-fold or ½ log serial dilutions are made to provide a total of five drug concentrations plus control. Aliquots of 100 μl of these different drug dilutions are added to the appropriate microtiter wells already containing 100 μl of medium, resulting in the required final drug concentrations.
(§3) Following drug addition, the plates are incubated for an additional 48 h at 37° C., 5% CO2, 95% air, and 100% relative humidity. For adherent cells, the assay is terminated by the addition of cold TCA. Cells are fixed in situ by the gentle addition of 50 μl of cold 50% (w/v) TCA (final concentration, 10% TCA) and incubated for 60 minutes at 4° C. The supernatant is discarded, and the plates are washed five times with tap water and air dried. Sulforhodamine B (SRB) solution (1001) at 0.4% (w/v) in 1% acetic acid is added to each well, and plates are incubated for 10 minutes at room temperature. After staining, unbound dye is removed by washing five times with 1% acetic acid and the plates are air dried. Bound stain is subsequently solubilized with 10 mM trizma base, and the absorbance is read on an automated plate reader at a wavelength of 515 nm. For suspension cells, the methodology is the same except that the assay is terminated by fixing settled cells at the bottom of the wells by gently adding 50 μl of 80% TCA (final concentration, 16% TCA). Using the seven absorbance measurements [time zero, (Tz), control growth, (C), and test growth in the presence of drug at the five concentration levels (Ti)], the percentage growth is calculated at each of the drug concentrations levels. Percentage growth inhibition is calculated as: [(Ti−Tz)/(C−Tz)]×100 for concentrations for which Ti>/=Tz [(Ti−Tz)/Tz]×100 for concentrations for which Ti<Tz
(§4) Three dose response parameters are calculated for each experimental agent. […] The drug concentration resulting in total growth inhibition (TGI) is calculated from Ti=Tz. […] Values are calculated for each of these three parameters if the level of activity is reached; however, if the effect is not reached or is exceeded, the value for that parameter is expressed as greater or less than the maximum or minimum concentration tested.

SK-MEL-5 (Melanoma) = test: NCI DTP tumor cell line screen (SRB), SK-MEL-5
Protocol: as §1, §2, §3, §4

COLO 205 (Colon Cancer) = test: NCI DTP tumor cell line screen (SRB), COLO 205
Protocol: as §1, §2, §3, §4

MCF7 (Breast Cancer) = test: NCI DTP tumor cell line screen (SRB), MCF7
Protocol: as §1, §2, §3, §4

HT29 (Colon Cancer) = test: NCI DTP tumor cell line screen (SRB), HT29
Protocol: as §1, §2, §3, §4

K-562 (Leukemia) = test: NCI DTP tumor cell line screen (SRB), K-562
Protocol: as §1, §2, §3, §4

PC-3 (Prostate Cancer) = test: NCI DTP tumor cell line screen (SRB), PC-3
Protocol: as §1, §2, §3, §4

UO-31 (Renal Cancer) = test: NCI DTP tumor cell line screen (SRB), UO-31
Protocol: as §1, §2, §3, §4

SK-MEL-2 (Melanoma) = test: NCI DTP tumor cell line screen (SRB), SK-MEL-2
Protocol: as §1, §2, §3, §4

[1] = tested on: NCI/ADR-RES (Breast Cancer)
Protocol: as §1, §2, §3, §4

MALME-3M (Melanoma) = test: NCI DTP tumor cell line screen (SRB), MALME-3M
Protocol: as §1, §2, §3, §4

786-0 (Renal Cancer) = test: NCI DTP tumor cell line screen (SRB), 786-0
Protocol: as §1, §2, §3, §4

[2] = tested on: MDA-MB-435 (Breast Cancer); test: NCI DTP tumor cell line screen (SRB), MDA-MB-435
Protocol: as §1, §2, §3, §4

[3] = tested on: sixty human tumor cell lines; test: NCI DTP sixty human tumor cell line screen (SRB), means over the panel
KM12 (Colon Cancer) = test: NCI DTP tumor cell line screen (SRB), KM12
Protocol: as §1, §2, §3, §4

[4] = tested on: NCI-H460 (Non-Small Cell Lung Cancer)
Protocol: as §1, §2, §3, §4

Substance: 4-[5-(2-Phenanthrenyl)-3-(trifluoromethyl)-1H-pyrazol-1-yl]-phenyl -guanidine [Compound 71]
- GI50 (SK-OV-3 (Ovarian Cancer)): 1.43 µM
- TGI (SK-OV-3 (Ovarian Cancer)): 2.94E−06
- Percent Growth (SK-OV-3 (Ovarian Cancer); Log10 Concentration −4.0): −30%
- Percent Growth (SK-OV-3 (Ovarian Cancer); Log10 Concentration −5.0): −85%
- Percent Growth (SK-OV-3 (Ovarian Cancer); Log10 Concentration −6.0): 75%
- Percent Growth (SK-OV-3 (Ovarian Cancer); Log10 Concentration −7.0): 91%
- GI50 (SK-MEL-5 (Melanoma)): 2.22 µM
- TGI (SK-MEL-5 (Melanoma)): 4.07E−06
- Percent Growth (SK-MEL-5 (Melanoma); Log10 Concentration −4.0): −34%
- Percent Growth (SK-MEL-5 (Melanoma); Log10 Concentration −6.0): 116%
- Percent Growth (SK-MEL-5 (Melanoma); Log10 Concentration −7.0): 111%
- Percent Growth (SK-MEL-5 (Melanoma); Log10 Concentration −8.0): 97%
- GI50 (COLO 205 (Colon Cancer)): 1.36 µM
- TGI (COLO 205 (Colon Cancer)): 2.69E−06
- Percent Growth (COLO 205 (Colon Cancer); Log10 Concentration −4.0): −32%
- Percent Growth (COLO 205 (Colon Cancer); Log10 Concentration −6.0): 73%
- Percent Growth (COLO 205 (Colon Cancer); Log10 Concentration −7.0): 83%
- Percent Growth (COLO 205 (Colon Cancer); Log10 Concentration −8.0): 95%
- GI50 (MCF7 (Breast Cancer)): 1.82 µM
- TGI (MCF7 (Breast Cancer)): 3.44E−06
- Percent Growth (MCF7 (Breast Cancer); Log10 Concentration −4.0): −49%
- Percent Growth (MCF7 (Breast Cancer); Log10 Concentration −6.0): 97%
- Percent Growth (MCF7 (Breast Cancer); Log10 Concentration −7.0): 82%
- GI50 (HT29 (Colon Cancer)): 1.5 µM
- TGI (HT29 (Colon Cancer)): 2.83E−06
- Percent Growth (HT29 (Colon Cancer); Log10 Concentration −4.0): −99%
- Percent Growth (HT29 (Colon Cancer); Log10 Concentration −5.0): −100%
- Percent Growth (HT29 (Colon Cancer); Log10 Concentration −6.0): 82%
- Percent Growth (HT29 (Colon Cancer); Log10 Concentration −7.0): 91%
- Percent Growth (HT29 (Colon Cancer); Log10 Concentration −8.0): 95%
- GI50 (K-562 (Leukemia)): 0.326 µM
- TGI (K-562 (Leukemia)): 1.52E−06
- Percent Growth (K-562 (Leukemia); Log10 Concentration −4.0): −60%
- Percent Growth (K-562 (Leukemia); Log10 Concentration −5.0): −58%
- Percent Growth (K-562 (Leukemia); Log10 Concentration −6.0): 13%
- Percent Growth (K-562 (Leukemia); Log10 Concentration −8.0): 94%
- GI50 (PC-3 (Prostate Cancer)): 1.38 µM
- TGI (PC-3 (Prostate Cancer)): 2.67E−06
- Percent Growth (PC-3 (Prostate Cancer); Log10 Concentration −5.0): −100%
- Percent Growth (PC-3 (Prostate Cancer); Log10 Concentration −6.0): 75%
- Percent Growth (PC-3 (Prostate Cancer); Log10 Concentration −7.0): 73%
- Percent Growth (PC-3 (Prostate Cancer); Log10 Concentration −8.0): 75%
- GI50 (UO-31 (Renal Cancer)): 1.57 µM
- TGI (UO-31 (Renal Cancer)): 2.92E−06
- Percent Growth (UO-31 (Renal Cancer); Log10 Concentration −4.0): −35%
- Percent Growth (UO-31 (Renal Cancer); Log10 Concentration −5.0): −100%
- Percent Growth (UO-31 (Renal Cancer); Log10 Concentration −7.0): 94%
- Percent Growth (UO-31 (Renal Cancer); Log10 Concentration −8.0): 91%
- GI50 (SK-MEL-2 (Melanoma)): 1.57 µM
- TGI (SK-MEL-2 (Melanoma)): 2.91E−06
- Percent Growth (SK-MEL-2 (Melanoma); Log10 Concentration −4.0): −29%
- Percent Growth (SK-MEL-2 (Melanoma); Log10 Concentration −5.0): −100%
- Percent Growth (SK-MEL-2 (Melanoma); Log10 Concentration −7.0): 97%
- Percent Growth (SK-MEL-2 (Melanoma); Log10 Concentration −8.0): 85%
- GI50 [1]: 2.64 µM
- TGI [1]: 7.73E−06
- Percent Growth ([1]; Log10 Concentration −4.0): −47%
- Percent Growth ([1]; Log10 Concentration −6.0): 95%
- Percent Growth ([1]; Log10 Concentration −8.0): 98%
- GI50 (MALME-3M (Melanoma)): 1.01 µM
- TGI (MALME-3M (Melanoma)): 2.33E−06
- Percent Growth (MALME-3M (Melanoma); Log10 Concentration −4.0): −50%
- Percent Growth (MALME-3M (Melanoma); Log10 Concentration −6.0): 50%
- Percent Growth (MALME-3M (Melanoma); Log10 Concentration −8.0): 52%
- GI50 (786-0 (Renal Cancer)): 1.49 µM
- TGI (786-0 (Renal Cancer)): 2.91E−06
- Percent Growth (786-0 (Renal Cancer); Log10 Concentration −4.0): −30%
- Percent Growth (786-0 (Renal Cancer); Log10 Concentration −6.0): 80%
- GI50 [2]: 1.7 µM
- TGI [2]: 3.07E−06
- Percent Growth ([2]; Log10 Concentration −4.0): −27%
- Percent Growth ([2]; Log10 Concentration −5.0): −100%
- Percent Growth ([2]; Log10 Concentration −6.0): 95%
- concentration range completely suppressing cell growth in a diverse range of tumor cell lines [3]: 3 to 5 µM
- GI50 ([3]; read-out: mean GI50 among the sixty cell lines, two-day treatment): 1.2 µM and 1.3 µM
- CC50 ([3]; read-out: mean LC50 among the sixty cell lines, two-day treatment): 8.5 µM
- mean TGI among the sixty cell lines ([3]; two-day treatment): 2.9 µM
- GI50 (KM12 (Colon Cancer)): 1.59 µM
- TGI (KM12 (Colon Cancer)): 2.97E−06
- Percent Growth (KM12 (Colon Cancer); Log10 Concentration −4.0): −43%
- Percent Growth (KM12 (Colon Cancer); Log10 Concentration −5.0): −98%
- Percent Growth (KM12 (Colon Cancer); Log10 Concentration −7.0): 91%
- Percent Growth (KM12 (Colon Cancer); Log10 Concentration −8.0): 94%
- GI50 [4]: 1.64 µM
- TGI [4]: 3.04E−06
- Percent Growth ([4]; Log10 Concentration −4.0): −20%
- Percent Growth ([4]; Log10 Concentration −5.0): −97%
- Percent Growth ([4]; Log10 Concentration −6.0): 90%
- Percent Growth ([4]; Log10 Concentration −7.0): 91%
- Percent Growth ([4]; Log10 Concentration −8.0): 91%
